According to US20250017889A1, “INHIBITORS OF P1B-TYPE ATPASES” (THE CURATORS OF THE UNIVERSITY OF MISSOURI, priority 2021, published 2025):

How the values were obtained:
in vitro = assay type: cell-based; details: mouse
Experimental: To test this hypothesis, a control compound was generated in which the sulfur atom in the thioamide was replaced with oxygen to generate a corresponding amide (MKV3-D1). […] 20C is a graph of the relationship between tyrosinase activity and compound concentration. […] 20D is a graph of the relationship between the survival of 4T1 breast cancer cells and compound concentration in the presence or absence of 10 μM copper.
Initial structural analysis focused on the importance of the sulfur in MKV3. […] It was thought that MKV3 may provide a coordinating Cu(I) ligand as a mechanism of preventing copper movement into the channel domain. To test this hypothesis, a control compound was generated in which the sulfur atom in the thioamide was replaced with oxygen to generate a corresponding amide (MKV3-D1). […] Using another assay of ATP7A inhibition, the ability of MKV3-D1 to sensitize 4T1 breast cancer cells to copper was tested.

ATP7B = biological target: T1, ATP7B (Homo sapiens, UniProt P35670); test: Microscale thermophoresis (MST) binding to GFP-ATP7B in HEK293 cell lysates; details: MST analysis; read-out: affinity for ATP7B
T1 construct: expressed in transfected cells; host or cells: HEK293 (detergent-free lysate)
T1 sequence (P35670 1-1465): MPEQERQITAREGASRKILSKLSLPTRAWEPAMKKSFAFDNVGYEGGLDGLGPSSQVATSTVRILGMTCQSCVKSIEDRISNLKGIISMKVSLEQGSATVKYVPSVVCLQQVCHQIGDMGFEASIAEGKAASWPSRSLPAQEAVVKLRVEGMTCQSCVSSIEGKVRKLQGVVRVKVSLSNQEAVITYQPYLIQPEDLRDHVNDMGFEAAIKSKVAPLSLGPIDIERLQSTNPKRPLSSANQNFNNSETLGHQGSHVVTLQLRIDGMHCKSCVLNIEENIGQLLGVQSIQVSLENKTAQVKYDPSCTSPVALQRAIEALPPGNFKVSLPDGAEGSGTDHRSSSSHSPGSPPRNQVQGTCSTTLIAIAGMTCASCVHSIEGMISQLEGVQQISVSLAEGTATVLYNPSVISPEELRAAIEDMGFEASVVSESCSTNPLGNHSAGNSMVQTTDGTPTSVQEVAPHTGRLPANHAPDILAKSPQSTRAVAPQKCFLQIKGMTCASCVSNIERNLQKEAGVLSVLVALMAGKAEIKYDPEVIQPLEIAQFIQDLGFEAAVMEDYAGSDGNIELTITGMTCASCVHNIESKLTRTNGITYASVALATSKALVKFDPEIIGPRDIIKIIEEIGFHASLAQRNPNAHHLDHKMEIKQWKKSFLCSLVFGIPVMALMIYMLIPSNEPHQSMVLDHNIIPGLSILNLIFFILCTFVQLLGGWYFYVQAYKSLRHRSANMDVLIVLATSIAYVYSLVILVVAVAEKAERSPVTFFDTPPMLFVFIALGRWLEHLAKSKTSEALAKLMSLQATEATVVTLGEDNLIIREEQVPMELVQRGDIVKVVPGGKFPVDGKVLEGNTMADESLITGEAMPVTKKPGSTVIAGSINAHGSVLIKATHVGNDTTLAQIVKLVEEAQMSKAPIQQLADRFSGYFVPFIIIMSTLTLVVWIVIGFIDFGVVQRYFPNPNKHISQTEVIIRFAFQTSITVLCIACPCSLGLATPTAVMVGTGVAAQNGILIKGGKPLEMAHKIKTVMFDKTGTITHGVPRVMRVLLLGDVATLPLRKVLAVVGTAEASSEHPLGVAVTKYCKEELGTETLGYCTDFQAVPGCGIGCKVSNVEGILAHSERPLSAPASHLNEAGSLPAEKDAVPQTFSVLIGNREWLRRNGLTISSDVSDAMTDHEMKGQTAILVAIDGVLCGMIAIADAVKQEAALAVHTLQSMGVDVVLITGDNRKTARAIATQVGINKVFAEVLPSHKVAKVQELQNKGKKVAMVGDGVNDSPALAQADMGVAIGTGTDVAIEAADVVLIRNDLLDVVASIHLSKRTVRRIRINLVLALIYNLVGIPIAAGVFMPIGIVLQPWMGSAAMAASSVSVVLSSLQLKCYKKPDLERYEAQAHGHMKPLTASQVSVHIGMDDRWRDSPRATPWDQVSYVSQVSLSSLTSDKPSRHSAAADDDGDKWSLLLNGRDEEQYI
Description: Coordinating residues D935 and E798 are predicted to bind copper during transport.

N#CC(C(=O)Nc1cccc(C(F)(F)F)c1)C(=S)Nc1ccccc1Cl (centres unmarked) [MKV3] gave a CC50 (in vitro) of 63.1 µM and a Kd (ATP7B) of 0.076 µM.
